This passage reports IC50 results from patent US20100160401A1, “4-PHENYLIMIDAZOLE-2-THIONE TYROSINASE INHIBITORS AND TREATMENT OR PREVENTION OF PIGMENTARY DISORDERS THEREWITH” (GALDERMA RESEARCH & DEVELOPMENT, BIOT, FRANCE, priority 2007, published 2010).

The assay deals with T1, tyrosinase (Mus musculus, UniProt P11344).
T1 construct: the supernatant obtained constitutes the cell lysate used as tyrosinase source in the enzymatic assay; endogenous in cells; host or cells: B16F1 murine melanoma cells, cultured with alpha-MSH, lysed in 1% Igepal and sonicated; the supernatant was used
T1 sequence (P11344 19-533): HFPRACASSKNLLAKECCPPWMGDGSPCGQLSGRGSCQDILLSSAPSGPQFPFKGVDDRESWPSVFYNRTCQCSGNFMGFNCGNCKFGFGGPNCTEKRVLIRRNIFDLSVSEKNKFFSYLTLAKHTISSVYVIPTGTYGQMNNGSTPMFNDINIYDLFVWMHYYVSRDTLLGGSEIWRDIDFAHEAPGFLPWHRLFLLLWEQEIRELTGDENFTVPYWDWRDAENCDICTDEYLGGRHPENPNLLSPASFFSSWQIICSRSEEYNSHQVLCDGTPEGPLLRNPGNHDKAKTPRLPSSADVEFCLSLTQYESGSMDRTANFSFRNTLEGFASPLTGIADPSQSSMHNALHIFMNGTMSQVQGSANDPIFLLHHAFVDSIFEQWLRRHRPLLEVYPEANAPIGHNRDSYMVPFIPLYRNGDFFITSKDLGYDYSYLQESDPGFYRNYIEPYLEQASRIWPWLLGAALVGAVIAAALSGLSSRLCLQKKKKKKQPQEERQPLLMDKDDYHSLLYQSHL
Nature of the assay: Tyrosinase activity inhibition assay (B16F1 cell lysate, L-tyrosine substrate, MBTH trapping, absorbance 520 nm). It counts as biochemical. The conditions noted are these: lysate of B16F1 cells (murine melanoma line) as tyrosinase source, 37° C., reading at 520 nm after 6 hours, read-out: Tyrosine hydroxylase/Dopa oxidase IC50. The method, then: The activity of the inhibitors is measured starting from a lysate of B16F1 cells (murine melanoma line). In the presence of the L-tyrosine substrate, the tyrosinase present in these cells catalyses the hydroxylation of L-tyrosine to give L-DOPA and then the oxidation of the L-DOPA to give dopaquinone. In the presence of MBTH (3-methyl-2-benzothiazolinone hydrazone), the dopaquinone is trapped so as to form a pink complex which absorbs at 520 nm.
The B16F1 cells are cultured in DMEM medium+10% foetal calf serum+10^−9 M α-MSH for 4 days at 37° C. under 7% CO2. They are treated with trypsin, washed with PBS, counted and pelleted. The pellet is taken up at 10^7 cells/ml in lysis buffer (10 mM sodium phosphate, pH 6.8-1% Igepal) and the suspension is treated with ultrasound for 10 seconds. After centrifugation for 30 minutes at 4000 rpm, the supernatant obtained constitutes the cell lysate used as tyrosinase source in the enzymatic assay.
The assays are carried out in duplicate in 384-well plates in a total volume of 50 μl. Each well contains:
40 μl of solution containing 1.25 mM L-tyrosine, 6.25 μM L-DOPA (cofactor) and 3.75 mM MBTH in buffer B (62.25 mM sodium phosphate, pH 6.8-2.5% dimethylformamide),
5 μl of inhibitor diluted in DMSO,
5 μl of cell lysate diluted to ½ in 50 mM Tris HCl buffer, pH 7.5.
The plate is incubated at 37° C. and a spectrophotometric reading is carried out at 520 nm after incubating for 6 hours. To avoid any possible absorption of the products, the system uses corrected absorbance (absorbance at time 6 h absorbance at time zero).
The inhibitors are assayed in terms of dose-response so as to calculate an IC50 (dose which inhibits 50% of the enzymatic activity).
Several internal controls are added to each experiment:
control for 100% activity: the 5 μl of inhibitor are replaced with 5 μl of DMSO,
control for 50% activity: the 5 μl of inhibitor are replaced with 5 μl of phenylthiourea at 300 μM in DMSO,
control for 0% activity: the L-tyrosine substrate is replaced with buffer B.
For `Sc1nc(-c2ccccc2)c[nH]1` [Compound 1, 4-phenyl-1,3-dihydroimidazole-2-thione], the IC50 was 250 nM.
In the case of `COc1ccc(-c2c[nH]c(=S)[nH]2)cc1` [Compound 3, 4-(4-methoxyphenyl)-1,3-dihydroimidazole-2-thione] it was 900 nM; in that of `S=c1[nH]cc(-c2cccc(Br)c2)[nH]1` [Compound 4, 4-(3-bromophenyl)-1,3-dihydroimidazole-2-thione], 3000 nM.
For the compound `Fc1ccc(-c2c[nH]c(=S)[nH]2)cc1` [Compound 8, 4-(4-fluorophenyl)-1,3-dihydroimidazole-2-thione], the IC50 was found to be 300 nM.
Turning to `Cc1ccc(-c2cnc(S)[nH]2)cc1` [Compound 13, 4-(4-methylphenyl)-1,3-dihydroimidazole-2-thione], the IC50 turned out to be 600 nM.
